Structures are written as SMILES.

Chain of SOS1/KRAS WT (Q07889 564-1049): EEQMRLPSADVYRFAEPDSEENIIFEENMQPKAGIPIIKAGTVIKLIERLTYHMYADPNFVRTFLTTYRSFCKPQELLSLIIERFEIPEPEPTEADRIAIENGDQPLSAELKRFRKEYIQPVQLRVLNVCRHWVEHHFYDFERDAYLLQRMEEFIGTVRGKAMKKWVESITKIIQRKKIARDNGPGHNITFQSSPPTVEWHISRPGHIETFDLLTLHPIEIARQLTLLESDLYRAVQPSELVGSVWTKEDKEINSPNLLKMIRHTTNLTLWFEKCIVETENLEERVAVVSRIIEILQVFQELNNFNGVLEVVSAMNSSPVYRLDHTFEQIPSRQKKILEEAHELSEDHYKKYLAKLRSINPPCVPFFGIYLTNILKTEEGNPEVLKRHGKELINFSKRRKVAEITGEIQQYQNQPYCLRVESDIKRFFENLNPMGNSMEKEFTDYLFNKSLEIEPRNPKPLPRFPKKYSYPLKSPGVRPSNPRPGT

This assay concerns the target SOS1/KRAS WT (Homo sapiens (Human), UniProt Q07889). Nature of the assay: SOS1/KRAS WT HTRF binding assay (FRET-based protein-protein interaction). The settings on record: inhibition of His6-SOS1 (aa564-1049, 40 nM) binding to GST-KRAS-WT (aa1-188, 40 nM); at least two independent replicates; read-out: SOS1/KRAS WT HTRF Binding assay pIC50 (converted). The procedure, abridged: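 GST-KRAS WT (aa1-188, 40 nM) and His6-SOS1 exchange domain (aa564-1049, 40 nM) were incubated 60 min at room temperature with compound dose response in HEPES pH7.3 buffer with 10 mM EDTA and 100 mM KF. Anti-GST-Eu(K)/anti-6His-XL665 HTRF was read after 4 hr, and IC50 came from a four-parameter fit (≥2 replicates).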
As for `Cc1c([C@@H](C)Nc2nnc(C)c3cc4c(cc23)C(C)(C)C(=O)N4C)cccc1C(F)(F)CO` [Compound 97, 1,3,3,8-tetramethyl-5-[[(1R)-1-[3-(1,1-difluoro-2-hydroxy-ethyl)-2-methyl-phenyl]ethyl]amino]pyrrolo[3,2-g]phthalazin-2-one], the IC50 was 13.2 nM.

As for `Cc1nnc(N[C@H](C)c2cccc(C(F)(F)C(C)(C)O)c2F)c2cc3c(cc12)N(C)C(=O)C3(C)C` [Compound 98, 1,3,3,8-tetramethyl-5-[[(1R)-1-[3-(1,1-difluoro-2-hydroxy-2-methyl-propyl)-2-fluoro-phenyl]ethyl]amino]pyrrolo[3,2-g]phthalazin-2-one], the IC50 is 12 nM.

As for `Cc1nnc(N[C@H](C)c2cccc(C(F)(F)CO)c2F)c2cc3c(cc12)N(C)C(=O)C3(C)C` [Compound 99, 1,3,3,8-tetramethyl-5-[[(1R)-1-[3-(1,1-difluoro-2-hydroxy-ethyl)-2-fluoro-phenyl]ethyl]amino]pyrrolo[3,2-g]phthalazin-2-one], the IC50 is 8.13 nM.

For `Cc1c([C@@H](C)Nc2nnc(C)c3cc4c(cc23)n(C(C)(C)C)c(=O)n4C)cccc1C(F)(F)CO` [Compound 100, 3-tert-butyl-1,8-dimethyl-5-[[(1R)-1-[3-(1,1-difluoro-2-hydroxy-ethyl)-2-methyl-phenyl]ethyl]amino]imidazo[4,5-g]phthalazin-2-one], the IC50 was 10 nM.

As for `COC1(C)C(=O)N(C)c2cc3c(N[C@H](C)c4cccc(C(F)(F)CO)c4)nnc(C)c3cc21` (stereo partly drawn) [Compound 101, 3-methoxy-1,3,5-trimethyl-8-[[(1R)-1-[3-(1,1-difluoro-2-hydroxy-ethyl)phenyl]ethyl]amino]pyrrolo [2,3-g]phthalazin-2-one], the IC50 was 10 nM.

As for `COC1(C)C(=O)N(C)c2cc3c(N[C@H](C)c4cccc(C(F)(F)C(C)(C)O)c4C)nnc(C)c3cc21` (stereo partly drawn) [Compound 102, 3-methoxy-1,3,5-trimethyl-8-[[(1R)-1-[3-(1,1-difluoro-2-hydroxy-2-methyl-propyl)-2-methyl-phenyl]ethyl]amino]pyrrolo[2,3-g]phthalazin-2-one], the IC50 was 8.32 nM.

As for `Cc1nnc(N[C@H](C)c2cccc(C(F)(F)C(C)(C)O)c2)c2cc3c(cc12)n(C)c(=O)n3C(C)(C)C` [Compound 103, 3-tert-butyl-1,8-dimethyl-5-[[(1R)-1-[3-(1,1-difluoro-2-hydroxy-2-methyl-propyl)phenyl]ethyl]amino]imidazo [4,5-g]phthalazin-2-one], the IC50 is 7.94 nM.

`Cc1c([C@@H](C)Nc2nnc(C)c3cc4c(cc23)N(C)C(=O)C42CCOCC2)cccc1C(F)(F)C(C)(C)O` [Compound 104, 1,5-dimethyl-8-[[(1R)-1-[3-(1,1-difluoro-2-hydroxy-2-methyl-propyl)-2-methyl-phenyl]ethyl]amino]spiro[pyrrolo[2,3-g]phthalazine-3,4′-tetrahydropyran]-2-one]: the IC50 is 24.5 nM.

On to `COCC1(C)C(=O)N(C)c2cc3c(N[C@H](C)c4cccc(C(F)(F)CO)c4C)nnc(C)c3cc21` (stereo partly drawn) [Compound 105, 8-[[(1R)-1-[3-(1,1-difluoro-2-hydroxy-ethyl)-2-methyl-phenyl]ethyl]amino]-3-(methoxymethyl)-1,3,5-trimethyl-pyrrolo[3,2-g]phthalazin-2-one], for which the IC50 is 10.7 nM.

For `COCC1(C)C(=O)N(C)c2cc3c(N[C@H](C)c4cccc(C(F)(F)CO)c4)nnc(C)c3cc21` (stereo partly drawn) [Compound 106, 8-[[(1R)-1-[3-(1,1-difluoro-2-hydroxy-ethyl)phenyl]ethyl]amino]-3-(methoxymethyl)-1,3,5-trimethyl-pyrrolo[3,2-g]phthalazin-2-one], the IC50 was 12 nM.

Regarding `Cc1nnc(N[C@H](C)c2cc(F)cc(C(F)(F)CO)c2)c2cc3c(cc12)C(C)(C)C(=O)N3C` [Compound 107, 1,3,3,5-tetramethyl-8-[[(1R)-1-[3-(1,1-difluoro-2-hydroxy-ethyl)-5-fluoro-phenyl]ethyl]amino]pyrrolo[2,3-g]phthalazin-2-one], the IC50 is 18.6 nM.

As for `Cc1c([C@@H](C)Nc2nnc(C)c3cc4c(cc23)N(C)C(=O)C4(C)C)cccc1C(F)(F)C(C)(C)O` [Compound 108, 1,3,3,5-tetramethyl-8-[[(1R)-1-[3-(1,1-difluoro-2-hydroxy-2-methyl-propyl)-2-methyl-phenyl]ethyl]amino]pyrrolo[2,3-g]phthalazin-2-one], the IC50 was 10.5 nM.

As to `Cc1nnc(N[C@H](C)c2cccc(C(F)(F)CO)c2F)c2cc3c(cc12)C(C)(C)C(=O)N3C` [Compound 109, 1,3,3,5-tetramethyl-8-[[(1R)-1-[3-(1,1-difluoro-2-hydroxy-ethyl)-2-fluoro-phenyl]ethyl]amino]pyrrolo[2,3-g]phthalazin-2-one], the IC50 is 7.08 nM.

In the case of `Cc1nnc(N[C@H](C)c2cccc(C(F)(F)CO)c2F)c2cc3c(cc12)C(C)(C)C(=O)N3C(C)C` [Compound 110, 1-isopropyl-3,3,5-trimethyl-8-[[(1R)-1-[3-(1,1-difluoro-2-hydroxy-ethyl)-2-fluoro-phenyl]ethyl]amino]pyrrolo[2,3-g]phthalazin-2-one], the IC50 was 7.08 nM.

For `Cc1nnc(N[C@H](C)c2cccc(C(F)(F)C(C)(C)O)c2F)c2cc3c(cc12)C(C)(C)C(=O)N3C(C)C` [Compound 111, 1-isopropyl-3,3,5-trimethyl-8-[[(1R)-1-[3-(1,1-difluoro-2-hydroxy-2-methyl-propyl)-2-fluoro-phenyl]ethyl]amino]pyrrolo[2,3-g]phthalazin-2-one], the IC50 is 7.41 nM.

Turning to `Cc1nnc(N[C@H](C)c2cccc(C(F)(F)CO)c2)c2cc3c(cc12)C1(CCOCC1)C(=O)N3C1CC1` [Compound 112, 1-cyclopropyl-5-methyl-8-[[(1R)-1-[3-(1,1-difluoro-2-hydroxy-ethyl)phenyl]ethyl]amino]spiro [pyrrolo[2,3-g]phthalazine-3,4′-tetrahydropyran]-2-one], the IC50 was 11 nM.

For the compound `COCC1(C)C(=O)N(C)c2cc3c(N[C@H](C)c4cccc(C(F)(F)C(C)(C)O)c4C)nnc(C)c3cc21` (stereo partly drawn) [Compound 113, 8-[[(1R)-1-[3-(1,1-difluoro-2-hydroxy-2-methyl-propyl)-2-methyl-phenyl]ethyl]amino]-3-(methoxymethyl)-1,3,5-trimethyl-pyrrolo[3,2-g]phthalazin-2-one], the IC50 was 13.5 nM.

As to `Cc1nnc(N[C@H](C)c2cccc(C(F)(F)CO)c2F)c2cc3c(cc12)C1(CCOCC1)C(=O)N3C1CC1` [Compound 114, 1-cyclopropyl-5-methyl-8-[[(1R)-1-[3-(1,1-difluoro-2-hydroxy-ethyl)-2-fluoro-phenyl]ethyl]amino]spiro[pyrrolo [2,3-g]phthalazine-3,4′-tetrahydropyran]-2-one], the IC50 was 9.12 nM.

Regarding `Cc1nnc(N[C@H](C)c2cccc(C(F)(F)C(C)(C)O)c2F)c2cc3c(cc12)N(C)C(=O)C31CCOCC1` [Compound 115, 1,8-dimethyl-5-[[(1R)-1-[3-(1,1-difluoro-2-hydroxy-2-methyl-propyl)-2-fluoro-phenyl]ethyl]amino]spiro[pyrrolo[3,2-g]phthalazine-3,4′-tetrahydropyran]-2-one], the IC50 was 6.61 nM.

As for `Cc1nnc(N[C@H](C)c2cccc(C(F)(F)CO)c2F)c2cc3c(cc12)N(C)C(=O)C31CCOCC1` [Compound 116, 1,8-dimethyl-5-[[(1R)-1-[3-(1,1-difluoro-2-hydroxy-ethyl)-2-fluoro-phenyl]ethyl]amino]spiro[pyrrolo [3,2-g]phthalazine-3,4′-tetrahydropyran]-2-one], the IC50 was 6.61 nM.

Regarding `COC1(C)C(=O)N(C2CC2)c2cc3c(N[C@H](C)c4cccc(C(F)(F)C(C)(C)O)c4)nnc(C)c3cc21` (stereo partly drawn) [Compound 117, 1-cyclopropyl-3-methoxy-3,5-dimethyl-8-[[(1R)-1-[3-(1,1-difluoro-2-hydroxy-2-methyl-propyl)phenyl]ethyl]amino]pyrrolo [2,3-g]phthalazin-2-one], the IC50 is 9.55 nM.

As to `Cc1nnc(N[C@H](C)c2cccc(C(F)(F)CN)c2F)c2cc3c(cc12)C(C)(C)C(=O)N3C` [Compound 118, 1,3,3,5-tetramethyl-8-[[(1R)-1-[3-(2-amino-1,1-difluoro-ethyl)-2-fluoro-phenyl]ethyl]amino]pyrrolo[2,3-g]phthalazin-2-one], the IC50 was 11.5 nM.

Consider `Cc1c([C@@H](C)Nc2nnc(C)c3cc4c(cc23)N(C2CC2)C(=O)C42CCOCC2)cccc1C(F)(F)CO` [Compound 119, 1-cyclopropyl-5-methyl-8-[[(1R)-1-[3-(1,1-difluoro-2-hydroxy-ethyl)-2-methyl-phenyl]ethyl]amino]spiro[pyrrolo [2,3-g]phthalazine-3,4′-tetrahydropyran]-2-one], for which the IC50 was 7.41 nM.

As for `Cc1nnc(N[C@H](C)c2cccc(C(F)(F)C(C)(C)O)c2)c2cc3c(cc12)C1(CCOCC1)C(=O)N3C1CC1` [Compound 120, 1-cyclopropyl-5-methyl-8-[[(1R)-1-[3-(1,1-difluoro-2-hydroxy-2-methyl-propyl)phenyl]ethyl]amino]spiro [pyrrolo[2,3-g]phthalazine-3,4′-tetrahydropyran]-2-one], the IC50 was 10.5 nM.

Take `Cc1nnc(N[C@H](C)c2cccc(C(F)(F)C(C)(C)O)c2F)c2cc3c(cc12)C1(CCOCC1)C(=O)N3C1CC1` [Compound 121, 1-cyclopropyl-5-methyl-8-[[(1R)-1-[3-(1,1-difluoro-2-hydroxy-2-methyl-propyl)-2-fluoro-phenyl]ethyl]amino]spiro[pyrrolo [2,3-g]phthalazine-3,4′-tetrahydropyran]-2-one]: the IC50 is 6.31 nM.

`COC1(C)C(=O)N(C2CC2)c2cc3c(N[C@H](C)c4cccc(C(F)(F)CO)c4F)nnc(C)c3cc21` (stereo partly drawn) [Compound 122, 1-cyclopropyl-3-methoxy-3,5-dimethyl-8-[[(1R)-1-[3-(1,1-difluoro-2-hydroxy-ethyl)-2-fluoro-phenyl]ethyl]amino]pyrrolo[2,3-g]phthalazin-2-one]: the IC50 was 5.75 nM.

These data come from patent US20250197407A1 (Jazz Pharmaceuticals Ireland Limited, priority 2022, published 2025).
